Results: the supplement of paper PMC10307832

How the values were obtained:
Experiment in all cases: relative viability (nuclei count vs DMSO), 5 days (fraction); higher = more cells survive
Imatinib + Olaparib = compound: Cc1ccc(NC(=O)c2ccc(CN3CCN(C)CC3)cc2)cc1Nc1nccc(-c2cccnc2)n1 [Imatinib] + O=C(c1cc(Cc2n[nH]c(=O)c3ccccc23)ccc1F)N1CCN(C(=O)C2CC2)CC1 [Olaparib] (partner 8 µM)
In short: (§1)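 One day after seeding in 1536-well plates, lung cancer cell lines were dosed by pin tool. Dosing was either single-drug or a fixed anchor-drug dose plus five library-drug doses (not always all listed) in √10 steps. After 5 days, nuclei were stained in one fix-and-stain step and counted on 4× images, and relative viability is the nuclei count of treated wells over that of vehicle wells, given as the median of duplicate plates.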

Imatinib + Phenformin = compound: Cc1ccc(NC(=O)c2ccc(CN3CCN(C)CC3)cc2)cc1Nc1nccc(-c2cccnc2)n1 [Imatinib] + N=C(N)NC(=N)NCCc1ccccc1 [Phenformin] (partner 250 µM)
In short: as §1

Imatinib + Linsitinib = compound: Cc1ccc(NC(=O)c2ccc(CN3CCN(C)CC3)cc2)cc1Nc1nccc(-c2cccnc2)n1 [Imatinib] + C[C@]1(O)C[C@@H](c2nc(-c3ccc4ccc(-c5ccccc5)nc4c3)c3c(N)nccn32)C1 [Linsitinib] (partner 1 µM)
In short: as §1

Imatinib + Pictilisib = compound: Cc1ccc(NC(=O)c2ccc(CN3CCN(C)CC3)cc2)cc1Nc1nccc(-c2cccnc2)n1 [Imatinib] + CS(=O)(=O)N1CCN(Cc2cc3nc(-c4cccc5[nH]ncc45)nc(N4CCOCC4)c3s2)CC1 [Pictilisib] (partner 1 µM)
In short: as §1

Imatinib + Decitabine = compound: Cc1ccc(NC(=O)c2ccc(CN3CCN(C)CC3)cc2)cc1Nc1nccc(-c2cccnc2)n1 [Imatinib] + Nc1ncn([C@H]2C[C@H](O)[C@@H](CO)O2)c(=O)n1 [Decitabine] (partner 2 µM)
In short: as §1

Imatinib + Lapatinib = compound: Cc1ccc(NC(=O)c2ccc(CN3CCN(C)CC3)cc2)cc1Nc1nccc(-c2cccnc2)n1 [Imatinib] + CS(=O)(=O)CCNCc1ccc(-c2ccc3ncnc(Nc4ccc(OCc5cccc(F)c5)c(Cl)c4)c3c2)o1 [Lapatinib] (partner 2 µM)
In short: as §1

Imatinib + Navitoclax = compound: Cc1ccc(NC(=O)c2ccc(CN3CCN(C)CC3)cc2)cc1Nc1nccc(-c2cccnc2)n1 [Imatinib] + CC1(C)CCC(c2ccc(Cl)cc2)=C(CN2CCN(c3ccc(C(=O)NS(=O)(=O)c4ccc(N[C@H](CCN5CCOCC5)CSc5ccccc5)c(S(=O)(=O)C(F)(F)F)c4)cc3)CC2)C1 [Navitoclax] (partner 0.5 µM)
In short: as §1

Imatinib + Alpelisib = compound: Cc1ccc(NC(=O)c2ccc(CN3CCN(C)CC3)cc2)cc1Nc1nccc(-c2cccnc2)n1 [Imatinib] + Cc1nc(NC(=O)N2CCC[C@H]2C(N)=O)sc1-c1ccnc(C(C)(C)C(F)(F)F)c1 [Alpelisib] (partner 2 µM)
In short: as §1

Imatinib = compound: Cc1ccc(NC(=O)c2ccc(CN3CCN(C)CC3)cc2)cc1Nc1nccc(-c2cccnc2)n1 [Imatinib]
In short: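 Acceptance criteria were a control CV below 25% and at least one doubling per plate. Lung cancer cell lines in 1536-well plates got five library-drug doses (not always all listed) √10 apart by pinning and were left 5 days with no medium change. Viability divides treated-well nuclei by vehicle-well nuclei and is the median across plates. Nuclei were counted by MetaXpress from 4× Hoechst images.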

Imatinib + Bortezomib = compound: Cc1ccc(NC(=O)c2ccc(CN3CCN(C)CC3)cc2)cc1Nc1nccc(-c2cccnc2)n1 [Imatinib] + CC(C)C[C@H](NC(=O)[C@H](Cc1ccccc1)NC(=O)c1cnccn1)B(O)O [Bortezomib] (partner 0.002 µM)
In short: as §1

Imatinib + Crizotinib = compound: Cc1ccc(NC(=O)c2ccc(CN3CCN(C)CC3)cc2)cc1Nc1nccc(-c2cccnc2)n1 [Imatinib] + C[C@@H](Oc1cc(-c2cnn(C3CCNCC3)c2)cnc1N)c1c(Cl)ccc(F)c1Cl [Crizotinib] (partner 1 µM)
In short: as §1

Imatinib + Foretinib = compound: Cc1ccc(NC(=O)c2ccc(CN3CCN(C)CC3)cc2)cc1Nc1nccc(-c2cccnc2)n1 [Imatinib] + COc1cc2c(Oc3ccc(NC(=O)C4(C(=O)Nc5ccc(F)cc5)CC4)cc3F)ccnc2cc1OCCCN1CCOCC1 [Foretinib] (partner 0.25 µM)
In short: as §1

Imatinib + OSI-027 = compound: Cc1ccc(NC(=O)c2ccc(CN3CCN(C)CC3)cc2)cc1Nc1nccc(-c2cccnc2)n1 [Imatinib] + COc1cccc2cc(-c3nc([C@H]4CC[C@H](C(=O)O)CC4)n4ncnc(N)c34)[nH]c12 [OSI-027] (partner 0.5 µM)
In short: as §1

Imatinib + Luminespib = compound: Cc1ccc(NC(=O)c2ccc(CN3CCN(C)CC3)cc2)cc1Nc1nccc(-c2cccnc2)n1 [Imatinib] + CCNC(=O)c1noc(-c2cc(C(C)C)c(O)cc2O)c1-c1ccc(CN2CCOCC2)cc1 [Luminespib] (partner 0.01 µM)
In short: as §1

Imatinib + Tozasertib = compound: Cc1ccc(NC(=O)c2ccc(CN3CCN(C)CC3)cc2)cc1Nc1nccc(-c2cccnc2)n1 [Imatinib] + Cc1cc(Nc2cc(N3CCN(C)CC3)nc(Sc3ccc(NC(=O)C4CC4)cc3)n2)n[nH]1 [Tozasertib] (partner 0.1 µM)
In short: as §1

## A549
Imatinib + Olaparib; first compound 0.02 µM
  relative viability: 0.472
Imatinib + Olaparib; first compound 0.2 µM
  relative viability: 0.299
Imatinib + Olaparib; first compound 0.6325 µM
  relative viability: 0.307
Imatinib + Olaparib; first compound 2 µM
  relative viability: 0.42
Imatinib + Phenformin; first compound 0.02 µM
  relative viability: 0.178
Imatinib + Phenformin; first compound 0.2 µM
  relative viability: 0.154
Imatinib + Phenformin; first compound 0.6325 µM
  relative viability: 0.159
Imatinib + Phenformin; first compound 2 µM
  relative viability: 0.135
Imatinib + Linsitinib; first compound 0.02 µM
  relative viability: 0.673
Imatinib + Linsitinib; first compound 0.2 µM
  relative viability: 0.636
Imatinib + Linsitinib; first compound 0.6325 µM
  relative viability: 0.699
Imatinib + Linsitinib; first compound 2 µM
  relative viability: 0.753
Imatinib + Pictilisib; first compound 0.02 µM
  relative viability: 0.729
Imatinib + Pictilisib; first compound 0.06325 µM
  relative viability: 0.703
Imatinib + Pictilisib; first compound 0.2 µM
  relative viability: 0.545
Imatinib + Pictilisib; first compound 0.6325 µM
  relative viability: 0.553
Imatinib + Pictilisib; first compound 2 µM
  relative viability: 0.466
Imatinib + Decitabine; first compound 0.02 µM
  relative viability: 0.287
Imatinib + Decitabine; first compound 0.2 µM
  relative viability: 0.355
Imatinib + Decitabine; first compound 0.6325 µM
  relative viability: 0.32
Imatinib + Decitabine; first compound 2 µM
  relative viability: 0.222
Imatinib + Lapatinib; first compound 0.02 µM
  relative viability: 1.09
Imatinib + Lapatinib; first compound 0.06325 µM
  relative viability: 1.13
Imatinib + Lapatinib; first compound 0.2 µM
  relative viability: 1.11
Imatinib + Lapatinib; first compound 0.6325 µM
  relative viability: 1.07
Imatinib + Lapatinib; first compound 2 µM
  relative viability: 0.99
Imatinib + Navitoclax; first compound 0.02 µM
  relative viability: 1.31
Imatinib + Navitoclax; first compound 0.06325 µM
  relative viability: 1.53
Imatinib + Navitoclax; first compound 0.2 µM
  relative viability: 1.55
Imatinib + Navitoclax; first compound 0.6325 µM
  relative viability: 1.18
Imatinib + Navitoclax; first compound 2 µM
  relative viability: 1.17
Imatinib + Alpelisib; first compound 0.02 µM
  relative viability: 0.793
Imatinib + Alpelisib; first compound 0.06325 µM
  relative viability: 0.841
Imatinib + Alpelisib; first compound 0.6325 µM
  relative viability: 0.722
Imatinib + Alpelisib; first compound 2 µM
  relative viability: 0.949
Imatinib; 0.02 µM
  relative viability: 1
Imatinib; 0.06325 µM
  relative viability: 0.846
Imatinib; 0.2 µM
  relative viability: 1.19
Imatinib; 0.6325 µM
  relative viability: 0.973
Imatinib; 2 µM
  relative viability: 0.99

## EBC-1
Imatinib + Bortezomib; first compound 0.02 µM
  relative viability: 0.556
Imatinib + Bortezomib; first compound 0.06325 µM
  relative viability: 0.623
Imatinib + Bortezomib; first compound 0.2 µM
  relative viability: 0.52
Imatinib + Bortezomib; first compound 0.6325 µM
  relative viability: 0.58
Imatinib + Bortezomib; first compound 2 µM
  relative viability: 0.423
Imatinib + Olaparib; first compound 0.02 µM
  relative viability: 0.776
Imatinib + Olaparib; first compound 0.06325 µM
  relative viability: 0.719
Imatinib + Olaparib; first compound 0.2 µM
  relative viability: 0.728
Imatinib + Olaparib; first compound 0.6325 µM
  relative viability: 0.68
Imatinib + Olaparib; first compound 2 µM
  relative viability: 0.573
Imatinib + Linsitinib; first compound 0.02 µM
  relative viability: 1.18
Imatinib + Linsitinib; first compound 0.06325 µM
  relative viability: 0.974
Imatinib + Linsitinib; first compound 0.2 µM
  relative viability: 1.07
Imatinib + Linsitinib; first compound 0.6325 µM
  relative viability: 1.04
Imatinib + Linsitinib; first compound 2 µM
  relative viability: 0.818
Imatinib + Crizotinib; first compound 0.02 µM
  relative viability: 0.185
Imatinib + Crizotinib; first compound 0.06325 µM
  relative viability: 0.204
Imatinib + Crizotinib; first compound 0.2 µM
  relative viability: 0.19
Imatinib + Crizotinib; first compound 0.6325 µM
  relative viability: 0.196
Imatinib + Crizotinib; first compound 2 µM
  relative viability: 0.208
Imatinib + Foretinib; first compound 0.02 µM
  relative viability: 0.114
Imatinib + Foretinib; first compound 0.06325 µM
  relative viability: 0.108
Imatinib + Foretinib; first compound 0.2 µM
  relative viability: 0.109
Imatinib + Foretinib; first compound 0.6325 µM
  relative viability: 0.0904
Imatinib + Foretinib; first compound 2 µM
  relative viability: 0.0924
Imatinib + Pictilisib; first compound 0.02 µM
  relative viability: 0.425
Imatinib + Pictilisib; first compound 0.06325 µM
  relative viability: 0.405
Imatinib + Pictilisib; first compound 0.2 µM
  relative viability: 0.387
Imatinib + Pictilisib; first compound 0.6325 µM
  relative viability: 0.304
Imatinib + Pictilisib; first compound 2 µM
  relative viability: 0.334
Imatinib + Lapatinib; first compound 0.02 µM
  relative viability: 0.182
Imatinib + Lapatinib; first compound 0.06325 µM
  relative viability: 0.187
Imatinib + Lapatinib; first compound 0.2 µM
  relative viability: 0.216
Imatinib + Lapatinib; first compound 0.6325 µM
  relative viability: 0.195
Imatinib + Lapatinib; first compound 2 µM
  relative viability: 0.168
Imatinib + Navitoclax; first compound 0.02 µM
  relative viability: 0.398
Imatinib + Navitoclax; first compound 0.06325 µM
  relative viability: 0.399
Imatinib + Navitoclax; first compound 0.2 µM
  relative viability: 0.382
Imatinib + Navitoclax; first compound 0.6325 µM
  relative viability: 0.327
Imatinib + Navitoclax; first compound 2 µM
  relative viability: 0.379
Imatinib + Alpelisib; first compound 0.02 µM
  relative viability: 0.763
Imatinib + Alpelisib; first compound 0.2 µM
  relative viability: 0.893
Imatinib + Alpelisib; first compound 0.6325 µM
  relative viability: 0.823
Imatinib + Alpelisib; first compound 2 µM
  relative viability: 0.634
Imatinib; 0.02 µM
  relative viability: 1.13
Imatinib; 0.06325 µM
  relative viability: 0.878
Imatinib; 0.2 µM
  relative viability: 1.17
Imatinib; 0.6325 µM
  relative viability: 1.02

## NCI-H522
Imatinib + OSI-027; first compound 0.02 µM
  relative viability: 1.34
Imatinib + OSI-027; first compound 0.06325 µM
  relative viability: 0.505
Imatinib + OSI-027; first compound 2 µM
  relative viability: 0.666
Imatinib + Olaparib; first compound 0.2 µM
  relative viability: 0.641
Imatinib + Olaparib; first compound 0.6325 µM
  relative viability: 0.606
Imatinib + Phenformin; first compound 0.02 µM
  relative viability: 0.679
Imatinib + Phenformin; first compound 0.06325 µM
  relative viability: 0.554
Imatinib + Phenformin; first compound 0.2 µM
  relative viability: 0.626
Imatinib + Phenformin; first compound 0.6325 µM
  relative viability: 0.613
Imatinib + Luminespib; first compound 0.02 µM
  relative viability: 1.11
Imatinib + Luminespib; first compound 0.06325 µM
  relative viability: 1.16
Imatinib + Luminespib; first compound 0.2 µM
  relative viability: 1.14
Imatinib + Luminespib; first compound 0.6325 µM
  relative viability: 1.15
Imatinib + Luminespib; first compound 2 µM
  relative viability: 1.11
Imatinib + Decitabine; first compound 0.02 µM
  relative viability: 0.678
Imatinib + Decitabine; first compound 0.2 µM
  relative viability: 0.616
Imatinib + Decitabine; first compound 0.6325 µM
  relative viability: 0.577
Imatinib + Decitabine; first compound 2 µM
  relative viability: 0.675
Imatinib + Tozasertib; first compound 0.06325 µM
  relative viability: 0.501
Imatinib + Tozasertib; first compound 0.2 µM
  relative viability: 0.524
Imatinib + Tozasertib; first compound 0.6325 µM
  relative viability: 0.553
Imatinib + Tozasertib; first compound 2 µM
  relative viability: 0.588
